The results in this text go back to PMC12475274, “Harnessing indole scaffolds to identify small-molecule IRE1α inhibitors modulating XBP1 mRNA splicing” (Nature Communications, 2025).

Assay [1] deals with T1, dephosphorylated IRE1α (547–977) (Homo sapiens, UniProt O75460).
T1 construct: Human IRE1α kinase and RNase domain (residues 547–977) was subcloned into pLIB plasmid; His tag (with TEV cleavage site) (N, cleaved yes); made in house; host or cells: Sf9 insect cells, baculovirus (Bac-to-Bac)
T1 sequence (O75460 547-977): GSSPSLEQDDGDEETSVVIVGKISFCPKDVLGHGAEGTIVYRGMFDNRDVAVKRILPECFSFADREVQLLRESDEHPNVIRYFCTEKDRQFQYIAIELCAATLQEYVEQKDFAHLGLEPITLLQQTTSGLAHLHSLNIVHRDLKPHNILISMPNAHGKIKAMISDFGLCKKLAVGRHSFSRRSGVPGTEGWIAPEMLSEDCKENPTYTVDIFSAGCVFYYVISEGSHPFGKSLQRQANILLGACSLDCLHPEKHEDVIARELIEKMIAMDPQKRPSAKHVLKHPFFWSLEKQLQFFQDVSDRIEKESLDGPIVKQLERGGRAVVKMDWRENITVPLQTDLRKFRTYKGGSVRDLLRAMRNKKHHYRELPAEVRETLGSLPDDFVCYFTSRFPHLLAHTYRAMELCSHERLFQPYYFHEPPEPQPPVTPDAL
Nature of the assay: FRET-based IRE1α RNase activity assay, dephosphorylated IRE1α. It is filed as biochemical. A digest of the protocol: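 Dephosphorylated human IRE1α (residues 547–977, Sf9-expressed, λ-phosphatase treated), 40 nM, preincubated 30 min with compound at room temperature, then 100 nM FAM/BHQ1 XBP1 RNA added in HEPES pH 7.5 buffer. Fluorescence (485/535 nm) read kinetically for 1 h; inhibition from linear-phase slopes versus DMSO, fitted to IC50.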

In assay [2] the target is T2, dephosphorylated IRE1α (Homo sapiens, UniProt O75460).
T2 construct: Human IRE1α kinase and RNase domain (residues 547–977) was subcloned into pLIB plasmid; His tag (with TEV cleavage site) (N, cleaved yes); made in house; host or cells: Sf9 insect cells, baculovirus (Bac-to-Bac)
T2 sequence (O75460 547-977): as above
The assay can be described thus: Isothermal titration calorimetry (ITC), incl. competitive ITC. It is filed as binding. How it is done: The dephosphorylated IRE1α protein was used directly after purification, ITC experiments were carried out at 25 °C using MicroCal PEAQ-ITC system (Malvern) in buffer 25 mM HEPES pH 7.5, 250 mM NaCl, 1 mM TCEP, 5% glycerol, 1% DMSO. The solution was diluted to a final 1% DMSO in the same buffer as for the protein. Protein and compound solution were degassed before loading to the cell and syringe respectively. Unless otherwise noted, 200 μM of compound was loaded into the syringe and 10 μM of IRE1α protein was loaded into the sample cell. For competitive ITC, the protein was incubated with the indicated compound at 25 °C (final 1% DMSO) before loading to the cell. Instrument settings were: reference power 10 μcal/s, feedback high, stir speed 750 rpm, initial delays 60 s, injection spacing 150 s, injection duration 4 s. All experiments were performed with a single 0.4 μL injection followed by 18 (or 15), 2 μL injections. Data were analyzed using MicroCal PEAQ-ITC analysis software. The one set of sites fitting model is used for the calorimetry data analysis, with cell concentration and syringe concentration as the input parameters. For compound IA01, the N was set to 1 to improve the fit.
(ITC needs no label: the signal is the heat of the interaction.)

The target of assay [3] is T3, p-IRE1α dimerization and oligomerization (Homo sapiens, UniProt O75460).
T3 construct: Human IRE1α kinase and RNase domain (residues 547–977) was subcloned into pLIB plasmid; His tag (with TEV cleavage site) (N, cleaved yes); made in house; host or cells: Sf9 insect cells, baculovirus (Bac-to-Bac)
T3 sequence (O75460 547-977): as above
The assay can be described thus: DSS cross-linking assay with mass photometry. To be noted: 100 μM compound, DSS crosslinking. Here is the method:
Phosphorylated IRE1α (p-IRE1α) and compounds were incubated 30 min at room temperature, with a final concentration of 2 μM p-IRE1α and 100 μM of the indicated compound, in a buffer containing 20 mM HEPES, pH 7.5, 50 mM KOAc, 1 mM MgOAc2, 1 mM DTT, 0.05% v/v TritonX-100, in a total reaction volume of 20 μL. After incubation, DSS (disuccinimidyl suberate, Thermo Fisher, A39267) was added to the reaction at a final concentration of 250 μM to induce crosslinking at room temperature for 1 h. Tris (pH 7.5) was added to a final concentration of 50 mM to stop the reaction. Samples were further measured with a mass photometry instrument (Refeyn Ltd). The PBS buffer was used for the mass photometry measurement. The instrument was calibrated with BSA and TG protein mixture in PBS. Samples were diluted to a protein concentration of 100 nM with buffer before measurement. Then, 18 μL PBS buffer was added to the center of the gasket on the coverslips to check and find the focus. Afterward, 2 μL of the diluted sample was added, mixed, and measured. Data were analyzed using Discover MP software, for each sample, results from 3 individual measurements were merged.

Where [4] appears, read: FRET assay, RNase activity, mean (± SEM), read-out: IRE1α IC50.
[5] abbreviates: IRE1a, IA34 0.000282 μM, Supplementary Fig. 3b, replicate values.
[6] abbreviates: IRE1a, IA34 1.85185 μM, Supplementary Fig. 3b, replicate values.
Setting [7] is: FRET assay at 50 μM, source data, 50 µM.
Setting [8] is: FRET assay, source data, unit from Fig. 3 / sheet Fig. 2b, read-out: IRE1a IC50, individual replicates (n1-n4).
The mark [9] stands for this setting: 200 μM compound into 10 μM IRE1α, no competitor.
Where [10] appears, read: titrating 200 μM compound into 10 μM IRE1α, no competitor (DMSO), read-out: KD (ITC).

Values joined by “and” are separate entries in the source; they are usually repeats but may differ in a detail not shown here. Identical values can stand only once. “Also recorded” adds a separate entry of the source. Like-named read-outs stand apart in the source and are kept apart here.

As for `CCOC(=O)Nc1cccc2c(Oc3ncccc3-c3ccnc(N[C@H]4CCCNC4)n3)c(C)ccc12` [Compound G1749, reference compound], in assay [1], the “effect on IRE1α RNase activity in the FRET assay” value is reported as “activating IRE1α activity”. Also, the “activity (fold change)” value was 6.184 fold change and 6.333 fold change and 5.999 fold change and 6.267 fold change in assay [1] (IRE1a, 5.55556 μM); 6.104 fold change and 5.222 fold change and 7.238 fold change and 6.279 fold change in assay [1] (IRE1a, 16.6667 μM); 5.173 fold change and 5.3757 fold change and 6.203 fold change and 5.356 fold change in assay [1] (IRE1a, 50 μM). The “KD (competition ITC)” value in assay [2] (G1749 to IRE1α with 1 mM IA107, ND, not detectable) is “did not show a detectable binding”. Further, the “effect on p-IRE1α dimerization/oligomerization” value in assay [3] was “inhibited the dimerization; also recorded: interfere with the dimerization”.
`COc1ccc2c(c1)c(CCC(=O)O)c(C)n2C(=O)c1ccc2ccccc2c1` [IA34]: the “IRE1α IC50” value in assay [1] (FRET assay, RNase activity, mean (± SEM)) is listed as “IC₅₀ not reached”. In addition, the IC50 in assay [1] (setting [4]) was more than 20000 nM. The compound also displayed an inhibition at 0.000282 µM in assay [1] (setting [5]) of 11%. Also, the “inhibition(%)” value in assay [1] (setting [5]) is 17.14% and 20.16% and 15.89%; in assay [1] (IRE1a, IA34 0.000847 μM, Supplementary Fig. 3b, replicate values) it was 11.75% and 10.72% and 4.25% and 16.96%; in assay [1] (IRE1a, IA34 0.00254 μM, Supplementary Fig. 3b, replicate values), 11.91% and 15.33% and 6.07% and 5.16%; in assay [1] (IRE1a, IA34 0.007621 μM, Supplementary Fig. 3b, replicate values) it was 4.65% and -4.78% and -13.00% and -9.42%; in assay [1] (IRE1a, IA34 0.022862 μM, Supplementary Fig. 3b, replicate values) it was -15.56% and -32.65% and -11.50% and -23.95%; in assay [1] (IRE1a, IA34 0.068587 μM, Supplementary Fig. 3b, replicate values), 0.30% and -2.50% and 3.18% and 1.26%. Further, the “inhibition(%)” value in assay [1] (IRE1a, IA34 0.205761 μM, Supplementary Fig. 3b, replicate values) was 4.13% and 5.59% and 2.33% and -2.10%; in assay [1] (IRE1a, IA34 0.617284 μM, Supplementary Fig. 3b, replicate values), 17.19% and 19.37% and 7.03% and 9.32%; in assay [1] (setting [6]), 18.23% and 17.28% and 17.87%; in assay [1] (IRE1a, IA34 5.55556 μM, Supplementary Fig. 3b, replicate values), 27.30% and 30.30% and 1.63% and 11.62%; in assay [1] (IRE1a, IA34 16.6667 μM, Supplementary Fig. 3b, replicate values), 11.08% and 14.65% and 30.15% and 29.94%; in assay [1] (IRE1a, IA34 50 μM, Supplementary Fig. 3b, replicate values), -1.98% and 7.19% and 5.53% and 17.33%. The compound also returned an inhibition at 1.85185 µM in assay [1] (setting [6]) of 10.8%. Also, the “binding to IRE1α in ITC” value in assay [2] was “no binding signal”.
Consider `COc1ccc2c(c1)c(CCC(=O)O)c(C)n2C(=O)c1ccc(Cl)cc1` [IA01], for which, in assay [1] (FRET assay at 10 μM, source data, 10 µM), the “IRE1a inhibition(%), individual measurements” value (shortened to “IRE1a inhibition(%)”) was determined as 86.3319%. Also, the inhibition at 10 µM in assay [1] (FRET assay at 10 μM, source data, read-out: IRE1a inhibition(%), individual measurements) amounted to 85.9%. Also, the inhibition at 50 µM in assay [1] (FRET assay at 50 μM, mean (± SEM), read-out: IRE1α inhibition%) turned out to be 97.1%. The “IRE1a inhibition(%)” value in assay [1] (setting [7]) is 92.8762% and 91.6346% and 94.1417% and 92.7378% and 93.1088% and 89.7986% and 113.165% and 103.517% and 100.196% and 112.293% and 71.6431% and 81.6993%. In addition, the IC50 in assay [1] (setting [4]) is 300 nM. The IC50 in assay [1] (setting [8]) is 286 nM and 204 nM and 400 nM. In assay [2] (setting [9]), the “-TΔS (ITC)” value is -2.14 kcal/mol, the “N(sites) (ITC)” value is 1, the “ΔG (ITC)” value is reported as -7.62 kcal/mol and the “ΔH (ITC)” value is -5.48 ± 2.28 kcal/mol.
Turning to `COc1ccc2c(c1)c(CCC(=O)O)c(C)n2C(=O)c1ccccc1` [IA64], the IC50 in assay [1] (setting [4]) was 30 nM and 34.9 nM; in assay [1] (setting [8]) it was 44.1 nM and 36.7 nM and 38.4 nM and 20.4 nM. For the same compound, the dissociation constant Kd in assay [2] (setting [10]) was 2960 nM.
`Cc1ccc2c(NS(=O)(=O)c3ccccc3Cl)cccc2c1Oc1ncccc1-c1ccnc(N[C@H]2CCCNC2)n1` [KIRA8]: the concentration for half-maximal inhibition (IC50) in assay [1] (setting [4]) stood at 21 nM. In addition, the “effect on p-IRE1α dimerization/oligomerization” value in assay [3] is “interfere with the dimerization; also recorded: inhibited dimerization”.
For `Cc1c(CCC(=O)O)c2cc(Cl)ccc2n1C(=O)c1ccccc1` [IA141], the IC50 in assay [1] (setting [4]) was 52 nM and 50 nM; in assay [1] (setting [8]), 61.7 nM and 34.6 nM and 58.2 nM. The Kd in assay [2] (setting [10]) was determined as 1820 nM.
`Cc1c(CCC(=O)O)c2cc(Br)ccc2n1C(=O)c1ccccc1` [IA107]: the “increase in potency (IRE1α)” value in assay [1] (FRET IC50, reference compound not named) turned out to be 20 fold. The “IRE1a inhibition(%)” value in assay [1] (FRET assay at 16.6667 μM, source data, 16.6667 µM) was 96.2448% and 97.4358% and 96.6561% and 93.7071% and 93.3922% and 93.79% and 97.6814%; in assay [1] (setting [7]), 89.203% and 96.8587% and 95.5081% and 91.4695% and 84.6077% and 86.1159% and 92.8068%. For the same compound, the inhibition at 16.6667 µM in assay [1] (FRET assay at 16.6667 μM, source data, read-out: IRE1a inhibition(%), individual measurements) came to 92.4%. Further, in assay [1] (FRET assay at 50 μM, source data, read-out: IRE1a inhibition(%), individual measurements), the inhibition at 50 µM worked out at 91.3%. For the same compound, the IC50 in assay [1] (setting [4]) is 16 nM and 15.6 nM; in assay [1] (setting [8]), 15.5 nM and 17 nM and 14.2 nM. Moreover, the Kd in assay [2] (IA107 to IRE1α with 5 μM G1749, read-out: KD (competitive ITC)) is 2250 nM; in assay [2] (setting [10]), 940 nM; in assay [2] (titrating 200 μM compound to 20 μM dephosphorylated IRE1α, read-out: KD (ITC)), 1410 nM. Further, the “KD (competitive ITC)” value in assay [2] (IA107 to IRE1α with 50 μM G1749, ND, not detectable) is listed as “did not show detectable binding”; in assay [2] (IA107 to IRE1α with 200 μM G1749, ND, not detectable), “did not show detectable binding”. For the same compound, the “effect on p-IRE1α dimerization/oligomerization” value in assay [3] was “did not inhibit the dimerization and oligomerization; also recorded: did not affect the dimerization and oligomerization”.
On to `Cc1ccc2c(c1)c(CCC(=O)O)c(C)n2C(=O)c1ccccc1` [IA147], for which the IC50 is 66 nM and 66.4 nM in assay [1] (setting [4]); 90.6 nM and 45.5 nM and 63.2 nM in assay [1] (setting [8]). Also, the dissociation constant Kd in assay [2] (setting [10]) was 2990 nM.
In the case of `CCOC(=O)CCc1c(C)n(C(=O)c2ccccc2)c2ccc(Br)cc12` [IAPD1], the “effect on IRE1α RNase activity in the FRET assay” value was “did not show any detectable activity” in assay [1] and “did not inhibit the RNase activity” in assay [1] (listed as IADP1). For the same compound, the IC50 in assay [1] (setting [4]) is more than 50000 nM.

By IC50 is commonly meant the concentration that inhibits the measured activity by half. Broadly, the inhibition is the share of the control response that was lost under treatment. In general, Kd refers to the constant that tells how readily two partners part at equilibrium.
